In US10822317B2, “Methods and compositions for wound healing” (QBiotics Limited, priority 2013, dated 2020):

How the values were obtained:
HaCaT cells [1] = assay: HaCaT scratch repopulation with Mitomycin C (migration study); assay type: cell-based, human; conditions: with 1 μg/mL Mitomycin C; 0.001 to 1.0 μg/mL; p<0.05
[2] = system: TGF-β1-stimulated dermal fibroblasts; assay: Differentiation of adult dermal fibroblasts into myofibroblasts (α-SMA expression); assay type: cell-based, human
Protocol: The effects of Compounds […] and 37 on dermal fibroblast differentiation to myofibroblasts was examined by the extent of α-SMA expression by TGF-βi-stimulated dermal fibroblasts.
Following trypsinization, fibroblasts were seeded in 8-well, Permanoxchamber slides (VWR International) in DMEM medium, containing antibiotics, 2 mM L-glutamine and 10% foetal calf serum (250 μL, all purchased from Invitrogen); at a cell density of 2.5×10^4 cells/well and maintained at 37° C. in 5% CO2/95% air for 48 h.
At 48 hr, fibroblasts were growth-arrested in serum-free DMEM for 48 hr and then replaced with serum-free DMEM (250 μL), containing Compounds 1 or 37 at concentrations of 0, 0.001, 0.01, 0.1, 1.0 and 10.0 μg/mL (3 wells/concentration/compound) and TGF-β1 (10 ng/ml, Peprotech). Fibroblasts were maintained at 37° C. in 5% CO2/95% air for 72 hr.
At 72 hr, chamber slide wells were washed with PBS (×1, 250 μL) and fixed in 4% paraformaldehyde (100 μL/well) for 10 min. The chamber slide wells were then washed again with PBS (×1, 250 μl), treated with 0.1% Triton X-100 in PBS (100 μL, Sigma) for 5 min and re-washed with PBS (×1, 250 μL). Wells were blocked with 1% BSA in PBS (250 μL, Sigma) for 1 h and washed (×3) in 0.1% BSA/PBS.
Wells were incubated with monoclonal mouse anti-human α-SMA, clone 1A4 (1:100, 150 ul, Sigma) at 4° C. overnight, washed (×6) in 0.1% BSA/PBS and incubated with Alexa Fluor 488 goat anti-mouse IgG antibody (1:1000, 250 μL, Invitrogen), at room temperature for 1 h, under darkness. Chamber slides were washed (×6) in 0.1% BSA/PBS and counterstained with Hoescht 33258 solution for 30 min under darkness (1:2000, 250 μL, Sigma). Chamber were subsequently removed for slides and treated with Fluorsave (Santa Cruz) for 10 min under darkness. Slides were viewed by fluorescence microscopy (Leica Microsystem), with digital images being capturedat ×200 magnification. Digital images were processed using HC Image J Software.

[3] = system: immortalised human keratinocyte cells (HaCaT); assay: Scratch repopulation and closure with HaCaT; assay type: cell-based; conditions: 48 hours; for % of scratch wound area remaining open after treatment: ± standard error
Protocol: The ability of immortalised human keratinocyte cells (HaCaT) to migrate across a scratch wound made in a confluent monolayer following treatment with either Compound 1 or Compound 37 was determined by the following method.
Trypsinised HaCaT cells were seeded at a cell density of 7.4×10^4 cells/mL in 24-well BD Falcon flat-bottomed, tissue culture plates (VWR International, UK) in 1 mL Dulbecco's Modified Eagle Medium (DMEM), supplemented with L-glutamine (2 mM), antibiotics (100 U/mL penicillin G sodium, 100 μg/mL streptomycin sulphate and 0.25 μg/mL amphotericin B); and 10% foetal calf serum (all Invitrogen Ltd., UK) to give a cell density of 7.4×10^4 cells seeded in each well. The cells were then maintained at 37° C. in a 5% CO2/95% air atmosphere overnight. The following morning, the 10% foetal calf serum-containing DMEM was replaced with serum-free DMEM and the HaCaT cells were subsequently serum-starved in DMEM for 48 hr.
After 48 hr, the serum-free DMEM was removed and a single scratch ‘wound’ made with a sterile pipette across each cell layer. Following washing twice in 1 mL PBS, Compound 1- or Compound 37-containing medium (1 mL) was added to each well. This medium consisted of DMEM, supplemented with L-glutamine (2 mM), antibiotics (as above) and 1% foetal calf serum, in addition to Compound 1 or Compound 37 at final concentrations of 0, 0.001, 0.01, 0.1, 1.0, 10 or 100 μg/mL. There were three replicate wells per concentration for each compound.
The HaCaT cultures were maintained at 37° C. in a 5% CO2/95% air atmosphere and the repopulation of the denuded ‘wound’ areas monitored by Time-Lapse Confocal Microscopy (Leica TCS SP5 Confocal Microscope; Leica Microsystems UK Ltd., UK) at 100× magnification, with digital images captured at fixed positions every 20 min over a 48 h period. The digital image sequences were exported and prepared as .avi movie files, using LAS AF Software (Leica Microsystems). The rates of HaCaT wound closure in vitro were quantified using ImageJ Software (ImageJ 1.37v; http://rsb.info.nih.gov/ij/). The data was analysed by One Way Analysis of Variance with post-test Tukey analysis. Each experiment was performed on 3 separate occasions.

HaCaT cells [4] = assay: HaCaT proliferation (MTT); assay type: cell-based, human; design: dose or concentration left out as unconfirmed; conditions: 24, 48, 120 and 168 hr; p<0.01
Description: The proliferation experiment assessed the effects of the two compounds on HaCaT proliferation (as measured by MTT) in the culture system at 4 time periods (24, 48, 120 and 168 hr).

With `CC=C(C)C(=O)OC1C(C)C2(O)C(C(O)C3(CO)OC3C3(O)C(=O)C(C)=CC32)C2C(C)(C)C12OC(=O)C(C)CC` (centres unmarked) [Compound 37, 12-tigloyl-13-(2-methylbutanoyl)-5,6-epoxy-4,5,9,12,13,20-hexahydroxy-1-tigliaen-3-one] the “scratch repopulation and closure (migration study)” value (HaCaT cells [1]) was “enhanced”, the “differentiation of TGF-β1-treated adult dermal fibroblasts into myofibroblasts” value ([2]; 0.001 to 10.0 μg/mL, 72 hr) was “affected differentiation into myofibroblasts in a concentration-dependent manner” and the myofibroblast morphology ([2]; 0.1 to 1.0 μg/mL) was “subtle alterations in myofibroblast morphology”. For the same compound, the “α-SMA stress fibre formation and polygonal morphology development” value ([2]; TGF-β1 10 ng/ml, 72 hr, 10 μg/mL) was “disruptive effect on α-SMA stress fibre formation and polygonal morphology development”, the “% of scratch wound area remaining open after treatment” value ([3]; 0.001 μg/ml) was 4.3 ± 4.1% and the “% of scratch wound area remaining open after treatment” value ([3]; 0.01 μg/ml) was 0.9 ± 1.5%. The “% of scratch wound area remaining open after treatment” value ([3]; 0.1 μg/ml) was 2.2 ± 3.4%, the “% of scratch wound area remaining open after treatment” value ([3]; 1.0 μg/ml) was 30.0 ± 5.3% and the “% of scratch wound area remaining open after treatment” value ([3]; 10 μg/ml) was 37.1 ± 7.1%. The “rate of scratch closure compared to the control treatment” value ([3]; 0.001, 0.01, 0.1 and 1.0 μg/ml, p<0.01) was “increased” and the “proliferation of HaCaT cells (MTT) vs control with no compound” value (HaCaT cells [4]) was “increasing proliferation”.
